Earlier results as cited in patent publication US6358910B1, “Detergent compositions” (Lever Brothers Company, divison of Conopco, Inc., priority 1997, dated 2002).

Conditions: grams of solid to form a saturated solution in 100 grams of water at 20° C.

Water Solubility (g/100 g)	SMILES
15	O=P(O)(O)OP(=O)(O)OP(=O)(O)O [Sodium tripolyphosphate anhydrous]
>100	NC(N)=O [Urea]

SMILES	Water Solubility (g/100 g)
O=BO[O-].[Na+] [Sodium perborate anhydrous]	3.7
